Laboratory results: PubChem BioAssay AID1259407 (Chemical Carcinogenesis Research Information System (CCRIS), 2018)
Activity calls are given as the source filed them. No rule for the calls is given here.

Tested on: CCRIS mutagenicity, Ames/micronucleus/aberration tests
Assay: CCRIS mutagenicity studies
[1] = Test System: AMES SALMONELLA TYPHIMURIUM, Strain/Indicator: TA97, Metabolic Activation: NONE, Method: PREINCUBATION
[2] = Test System: AMES SALMONELLA TYPHIMURIUM, Strain/Indicator: TA98, Metabolic Activation: NONE, Method: PREINCUBATION
[3] = Test System: AMES SALMONELLA TYPHIMURIUM, Strain/Indicator: TA100, Metabolic Activation: NONE, Method: PREINCUBATION
[4] = Test System: UDS RAT HEPATOCYTES, Strain/Indicator: THY INCORP, Metabolic Activation: NONE, Method: AUTORADIOGRAPHY
[5] = Test System: AMES SALMONELLA TYPHIMURIUM, Strain/Indicator: TA98, Metabolic Activation: NONE, Method: STANDARD PLATE
[6] = Test System: AMES SALMONELLA TYPHIMURIUM, Strain/Indicator: TA98, Metabolic Activation: RAT, LIVER, S-9, AROCLOR 1254, Method: STANDARD PLATE
[7] = Test System: AMES SALMONELLA TYPHIMURIUM, Strain/Indicator: TA100, Metabolic Activation: NONE, Method: STANDARD PLATE
[8] = Test System: AMES SALMONELLA TYPHIMURIUM, Strain/Indicator: TA100, Metabolic Activation: RAT, LIVER, S-9, AROCLOR 1254, Method: STANDARD PLATE
[9] = Test System: AMES SALMONELLA TYPHIMURIUM, Strain/Indicator: TA98, Metabolic Activation: RAT, LIVER, S-9, PCB, Method: PREINCUBATION
[10] = Test System: AMES SALMONELLA TYPHIMURIUM, Strain/Indicator: TA100, Metabolic Activation: RAT, LIVER, S-9, PCB, Method: PREINCUBATION

Measured: mutagenic call

Nc1c2c(nc3ccccc13)CCCC2
active: Test System: AMES SALMONELLA TYPHIMURIUM, Strain/Indicator: TA97, Metabolic Activation: HAMSTER LIVER S-9, AROCLOR 1254 (30%), Method: PREINCUBATION active; positive | [1] active; positive | Test System: AMES SALMONELLA TYPHIMURIUM, Strain/Indicator: TA97, Metabolic Activation: RAT LIVER S-9, AROCLOR 1254 (30%), Method: PREINCUBATION active; positive | Test System: AMES SALMONELLA TYPHIMURIUM, Strain/Indicator: TA98, Metabolic Activation: HAMSTER LIVER S-9, AROCLOR 1254 (30%), Method: PREINCUBATION active; positive | Test System: AMES SALMONELLA TYPHIMURIUM, Strain/Indicator: TA98, Metabolic Activation: RAT LIVER S-9, AROCLOR 1254 (5%), Method: PREINCUBATION active; positive | Test System: AMES SALMONELLA TYPHIMURIUM, Strain/Indicator: TA98, Metabolic Activation: RAT LIVER S-9, AROCLOR 1254 (10%), Method: PREINCUBATION active; positive | Test System: UDS MOUSE HEPATOCYTES, Strain/Indicator: THY INCORP, Metabolic Activation: NONE, Method: AUTORADIOGRAPHY active; positive | [4] active; positive
inactive: Test System: AMES SALMONELLA TYPHIMURIUM, Strain/Indicator: TA98, Metabolic Activation: HAMSTER LIVER S-9, AROCLOR 1254 (5 OR 10%), Method: PREINCUBATION inactive; negative | [2] inactive; negative | Test System: AMES SALMONELLA TYPHIMURIUM, Strain/Indicator: TA98, Metabolic Activation: RAT LIVER S-9, AROCLOR 1254 (30%), Method: PREINCUBATION inactive; negative | [3] inactive; negative | Test System: AMES SALMONELLA TYPHIMURIUM, Strain/Indicator: TA100, Metabolic Activation: RAT LIVER S-9, AROCLOR 1254 (30%), Method: PREINCUBATION inactive; negative

COc1cccc2cccnc12
inactive: Test System: AMES SALMONELLA TYPHIMURIUM, Strain/Indicator: TA100, Metabolic Activation: S-9, Method: PREINCUBATION inactive; negative

CCCCN(N=O)C(CCC)OC(C)=O (stereo unspecified)
active: Test System: UDS RAT UROTHELIAL CELLS, Strain/Indicator: THY INCORP, Metabolic Activation: NONE active; positive

O=C1CCC(=O)N1c1ccc(Cl)c(Cl)c1
inactive: [5] inactive; negative | [6] inactive; negative | [7] inactive; negative | [8] inactive; negative

O=C1NC(=O)C(Cl)=C1Cl
active: [7] active; positive

Cc1c(O)cc2c(c1O)C(=O)c1ccccc1C2=O
active: Test System: AMES SALMONELLA TYPHIMURIUM, Strain/Indicator: TA98, Metabolic Activation: RAT, LIVER, S-9, AROCLOR 1254, Method: PREINCUBATION active; positive | [9] active; positive | Test System: AMES SALMONELLA TYPHIMURIUM, Strain/Indicator: TA100, Metabolic Activation: RAT, LIVER, S-9, AROCLOR 1254, Method: PREINCUBATION active; positive | [10] active; positive | Test System: AMES SALMONELLA TYPHIMURIUM, Strain/Indicator: TA1537, Metabolic Activation: RAT, LIVER, S-9, AROCLOR 1254, Method: PREINCUBATION active; positive | Test System: UDS RODENT HEPATOCYTES, Strain/Indicator: THY INCORP, Metabolic Activation: NONE active; positive
inactive: [2] inactive; negative | [3] inactive; negative | Test System: AMES SALMONELLA TYPHIMURIUM, Strain/Indicator: TA1537, Metabolic Activation: NONE, Method: PREINCUBATION inactive; negative

NNc1ccn([C@@H]2O[C@H](CO)[C@@H](O)[C@H]2O)c(=O)n1
active: Test System: CHINESE HAMSTER V-79, Strain/Indicator: V-79/6-THIOGUANINE, Metabolic Activation: NONE, Method: REPLATING active; positive

Nc1ccc(Cc2ccc(N)cc2)cc1
inactive: End Point: IN VIVO MICRONUCLEUS, Test System: PERIPHERAL BLOOD RETICULOCYTES, Species: RAT, Strain/Sex: FISHER 344 OR SD/MALE, Route: ORAL OR IP inactive; negative | [1] inactive; negative | [2] inactive; negative | [5] inactive; negative | Test System: AMES SALMONELLA TYPHIMURIUM, Strain/Indicator: TA98, Metabolic Activation: RAT, LIVER, S-9, PHENOBARBITAL, Method: PREINCUBATION inactive; negative | [3] inactive; negative | [7] inactive; negative | Test System: AMES SALMONELLA TYPHIMURIUM, Strain/Indicator: TA1535, Metabolic Activation: NONE, Method: PREINCUBATION inactive; negative | Test System: AMES SALMONELLA TYPHIMURIUM, Strain/Indicator: TA1535, Metabolic Activation: RAT, LIVER, S-9, AROCLOR 1254 (10%), Method: PREINCUBATION inactive; negative | Test System: E. COLI, Strain/Indicator: WP2 UVRA, Metabolic Activation: HAMSTER, LIVER, S-9, AROCLOR 1254, Method: STANDARD PLATE inactive; negative | Test System: E. COLI, Strain/Indicator: WP2 UVRA, Metabolic Activation: HAMSTER, LIVER, S-9, Method: STANDARD PLATE inactive; negative | Test System: E. COLI, Strain/Indicator: WP2 UVRA, Metabolic Activation: MOUSE, LIVER, S-9, AROCLOR 1254, Method: STANDARD PLATE inactive; negative | Test System: E. COLI, Strain/Indicator: WP2 UVRA, Metabolic Activation: MOUSE, LIVER, S-9, Method: STANDARD PLATE inactive; negative | Test System: E. COLI, Strain/Indicator: WP2 UVRA, Metabolic Activation: NONE, Method: STANDARD PLATE inactive; negative | Test System: E. COLI, Strain/Indicator: WP2 UVRA, Metabolic Activation: RAT, LIVER, S-9, AROCLOR 1254, Method: STANDARD PLATE inactive; negative | Test System: E. COLI, Strain/Indicator: WP2 UVRA, Metabolic Activation: RAT, LIVER, S-9, Method: STANDARD PLATE inactive; negative | Test System: UDS RAT HEPATOCYTES, Strain/Indicator: BROMODEOXYURIDINE INCORP, Metabolic Activation: NONE, Method: FLOW CYTOMETRIC ANALYSIS inactive; negative | [4] inactive; negative
active: Test System: AMES SALMONELLA TYPHIMURIUM, Strain/Indicator: TA97, Metabolic Activation: HAMSTER, LIVER, S-9, AROCLOR 1254 (10%), Method: PREINCUBATION active; positive | Test System: AMES SALMONELLA TYPHIMURIUM, Strain/Indicator: TA98, Metabolic Activation: HAMSTER, LIVER, S-9, AROCLOR 1254 (10%), Method: PREINCUBATION active; positive | [6] active; positive | [9] active; positive | Test System: AMES SALMONELLA TYPHIMURIUM, Strain/Indicator: TA98, Metabolic Activation: RAT, LIVER, S-9, PCB, Method: STANDARD PLATE active; positive | Test System: AMES SALMONELLA TYPHIMURIUM, Strain/Indicator: TA100, Metabolic Activation: HAMSTER, LIVER, S-9, AROCLOR 1254 (10%), Method: PREINCUBATION active; positive | Test System: AMES SALMONELLA TYPHIMURIUM, Strain/Indicator: TA100, Metabolic Activation: RAT, LIVER, S-9, AROCLOR 1254 (10%), Method: PREINCUBATION active; positive | [8] active; positive | [10] active; positive | Test System: AMES SALMONELLA TYPHIMURIUM, Strain/Indicator: TA100, Metabolic Activation: RAT, LIVER, S-9, PCB, Method: STANDARD PLATE active; positive | Test System: AMES SALMONELLA TYPHIMURIUM, Strain/Indicator: TA100, Metabolic Activation: RAT, LIVER, S-9, PHENOBARBITAL, Method: PREINCUBATION active; positive | Test System: AMES SALMONELLA TYPHIMURIUM, Strain/Indicator: TA1535, Metabolic Activation: HAMSTER, LIVER, S-9, AROCLOR 1254 (5 OR 30%), Method: PREINCUBATION active; positive | Test System: AMES SALMONELLA TYPHIMURIUM, Strain/Indicator: TA1535, Metabolic Activation: HAMSTER, LIVER, S-9, AROCLOR 1254 (10%), Method: PREINCUBATION active; positive
